# Patent US11986493B2 (University of Pittsburgh—Of the Commonwealth System of …, priority 2013, dated 2024)
# Tested on: subjects with pulmonary hypertension (WHO group I PAH, WHO group III PH)
# Experiment: Right heart catheterization: right heart/pulmonary artery hemodynamics, thermodilution cardiac output, PVR and SVR after inhaled NO and nebulized nitrite
# Format: in vivo, human
# Protocol: A total of 6 subjects with a confirmed diagnosis of pulmonary hypertension and meeting all inclusion/exclusion criteria were enrolled in the study which entailed a single right heart catheterization. The study population consisted of subjects with WHO group I PAH (n=3) and subjects with WHO group III PH (n=3) which received the dose escalation paradigm:
# During the study right heart/pulmonary artery hemodynamics were measured as well as noninvasive systemic blood pressure monitoring and simultaneous RV echocardiography. Subjects were tested for the changes in pulmonary vascular resistance (PVR) measured by right heart catheterization and using thermodilution cardiac output measurement at time zero, at times 15, 30 and 45 minutes after completion of each nebulization dose.
# Following right heart catheterization, the patient was stabilized for 20 minutes. Baseline blood collections and hemodynamic measurements were performed, followed by treatment with 40 ppm inhaled NO gas for […] with repeat hemodynamic measurements performed.
# After stopping inhaled NO gas, a single dose of sildenafil was given if patients were on background sildenafil therapy at previously prescribed doses. 45-minutes after sildenafil dose baseline hemodynamics were performed.
# Subjects were monitored carefully during and after the study treatment.
# The study was conducted at the 3rd FL Catheterization Laboratory at Presbyterian Hospital of the University of Pittsburgh Medical Center (UPMC). Baseline vasoreactivity was recorded after Inhaled NO at 40 ppm for […]. […] Subjects were instructed to breathe as calmly, and deeply as possible until no more mist was formed in the nebulizer chamber. Subjects were also instructed to hold their breath for approximately 10 seconds after inhalation to allow the study drug to reach deep into the lungs.
# [1] = Patient 1, nitrite 45 mg inhaled, 15 min
# [2] = Patient 1, nitrite 45 mg inhaled, 30 min
# [3] = Patient 1, nitrite 45 mg inhaled, 45 min
# [4] = Patient 1, nitrite 45 mg inhaled, 60 min
# [5] = Patient 1, nitrite 90 mg inhaled, 15 min
# [6] = Patient 1, nitrite 90 mg inhaled, 30 min
# [7] = Patient 1, nitrite 90 mg inhaled, 45 min
# [8] = Patient 1, nitrite 90 mg inhaled, 60 min
# [9] = Patient 2, nitrite 45 mg inhaled, 15 min
# [10] = Patient 2, nitrite 45 mg inhaled, 30 min
# [11] = Patient 2, nitrite 45 mg inhaled, 45 min
# [12] = Patient 2, nitrite 45 mg inhaled, 60 min
# [13] = Patient 2, nitrite 90 mg inhaled, 15 min
# [14] = Patient 2, nitrite 90 mg inhaled, 30 min
# [15] = Patient 2, nitrite 90 mg inhaled, 45 min
# [16] = Patient 2, nitrite 90 mg inhaled, 60 min
# [17] = Patient 3, nitrite 45 mg inhaled, 15 min
# [18] = Patient 3, nitrite 45 mg inhaled, 30 min
# [19] = Patient 3, nitrite 45 mg inhaled, 45 min
# [20] = Patient 3, nitrite 45 mg inhaled, 60 min
# [21] = Patient 3, nitrite 90 mg inhaled, 15 min
# [22] = Patient 3, nitrite 90 mg inhaled, 30 min
# [23] = Patient 3, nitrite 90 mg inhaled, 45 min
# [24] = Patient 3, nitrite 90 mg inhaled, 60 min
compound,measurement,setting,value
"O=NO [nitrite, sodium nitrite]",CI,[1],2.47
same,CO,[1],4.77
same,PA sat,[1],66
same,PAD,[1],35
same,PAS,[1],93
same,PCWP,[1],11
same,PVR,[1],9.09
same,PVR/SVR,[1],0.58
same,RA,[1],9
same,RVD,[1],8
same,RVS,[1],98
same,SVR,[1],15.66
same,TPR,[1],11.39
same,mPAP,[1],54.34
same,CI,[2],2.65
same,CO,[2],5.12
same,PA sat,[2],68
same,PAD,[2],36
same,PAS,[2],98
same,PCWP,[2],7
same,PVR,[2],9.70
same,PVR/SVR,[2],0.64
same,RA,[2],10
same,RVD,[2],10
same,RVS,[2],94
same,SVR,[2],15.24
same,TPR,[2],11.07
same,mPAP,[2],56.67
same,CI,[3],2.51
same,CO,[3],4.85
same,PA sat,[3],63
same,PAD,[3],38
same,PAS,[3],100
same,PCWP,[3],9
same,PVR,[3],10.24
same,PVR/SVR,[3],0.66
same,RA,[3],9
same,RVD,[3],9
same,RVS,[3],95
same,SVR,[3],15.53
same,TPR,[3],12.10
same,mPAP,[3],58.67
same,CI,[4],3.11
same,CO,[4],6.01
same,PA sat,[4],62
same,PAD,[4],36
same,PAS,[4],98
same,PCWP,[4],7
same,PVR,[4],8.27
same,PVR/SVR,[4],0.63
same,RA,[4],9
same,RVD,[4],9
same,RVS,[4],94
same,SVR,[4],13.15
same,TPR,[4],9.43
same,mPAP,[4],56.67
same,CI,[5],2.93
same,CO,[5],5.65
same,PA sat,[5],64
same,PAD,[5],32
same,PAS,[5],92
same,PCWP,[5],2
same,PVR,[5],8.85
same,PVR/SVR,[5],0.68
same,RA,[5],3
same,RVD,[5],3
same,RVS,[5],96
same,SVR,[5],13.10
same,TPR,[5],9.20
same,mPAP,[5],52.01
same,CI,[6],2.99
same,CO,[6],5.77
same,PA sat,[6],61
same,PAD,[6],32
same,PAS,[6],92
same,PCWP,[6],2
same,PVR,[6],8.67
same,PVR/SVR,[6],0.68
same,RA,[6],4
same,RVD,[6],3
same,RVS,[6],91
same,SVR,[6],12.83
same,TPR,[6],9.01
same,mPAP,[6],52.01
same,CI,[7],3.22
same,CO,[7],6.22
same,PA sat,[7],62
same,PAD,[7],31
same,PAS,[7],90
same,PCWP,[7],2
same,PVR,[7],7.83
same,PVR/SVR,[7],0.67
same,RA,[7],3
same,RVD,[7],3
same,RVS,[7],92
same,SVR,[7],11.63
same,TPR,[7],8.15
same,mPAP,[7],50.67
same,CI,[8],3.14
same,CO,[8],6.06
same,PA sat,[8],62
same,PAD,[8],30
same,PAS,[8],90
same,PCWP,[8],3
same,PVR,[8],7.76
same,PVR/SVR,[8],0.61
same,RA,[8],3
same,RVD,[8],2
same,RVS,[8],88
same,SVR,[8],12.65
same,TPR,[8],8.25
same,mPAP,[8],50.01
same,CI,[9],3.67
same,CO,[9],7.08
same,PAD,[9],19
same,PAS,[9],57
same,PCWP,[9],8
same,PVR,[9],3.34
same,PVR/SVR,[9],0.25
same,RA,[9],6
same,SVR,[9],13.28
same,TPR,[9],4.47
same,mPAP,[9],31.67
same,CI,[10],3.88
same,CO,[10],7.48
same,PAD,[10],22
same,PAS,[10],64
same,PCWP,[10],9
same,PVR,[10],3.61
same,PVR/SVR,[10],0.30
same,RA,[10],6
same,SVR,[10],11.99
same,TPR,[10],4.81
same,mPAP,[10],36.01
same,CI,[11],3.93
same,CO,[11],7.58
same,PAD,[11],21
same,PAS,[11],62
same,PCWP,[11],8
same,PVR,[11],3.52
same,PVR/SVR,[11],0.29
same,RA,[11],3
same,SVR,[11],12.23
same,TPR,[11],4.57
same,mPAP,[11],34.67
same,CI,[12],3.89
same,CO,[12],7.5
same,PAD,[12],21
same,PAS,[12],64
same,PCWP,[12],8
same,PVR,[12],3.65
same,PVR/SVR,[12],0.32
same,RA,[12],4
same,SVR,[12],11.38
same,TPR,[12],4.71
same,mPAP,[12],35.34
same,CI,[13],3.81
same,CO,[13],7.35
same,PAD,[13],20
same,PAS,[13],57
same,PCWP,[13],8
same,PVR,[13],3.31
same,PVR/SVR,[13],0.25
same,RA,[13],2
same,SVR,[13],13.06
same,TPR,[13],4.40
same,mPAP,[13],32.34
same,CI,[14],4.60
same,CO,[14],8.87
same,PAD,[14],22
same,PAS,[14],60
same,PCWP,[14],6
same,PVR,[14],3.23
same,PVR/SVR,[14],0.31
same,RA,[14],3
same,SVR,[14],10.41
same,TPR,[14],3.91
same,mPAP,[14],34.67
same,CI,[15],4.19
same,CO,[15],8.09
same,PAD,[15],21
same,PAS,[15],62
same,PCWP,[15],7
same,PVR,[15],3.42
same,PVR/SVR,[15],0.28
same,RA,[15],3
same,SVR,[15],12.12
same,TPR,[15],4.29
same,mPAP,[15],34.67
same,CI,[16],4.56
same,CO,[16],8.8
same,PAD,[16],22
same,PAS,[16],68
same,PCWP,[16],6
same,PVR,[16],3.56
same,PVR/SVR,[16],0.33
same,RA,[16],5
same,RVD,[16],3
same,RVS,[16],62
same,SVR,[16],10.76
same,TPR,[16],4.24
same,mPAP,[16],37.34
same,CI,[17],3.19
same,CO,[17],6.63
same,PAD,[17],19
same,PAS,[17],80
same,PCWP,[17],14
same,PVR,[17],3.82
same,PVR/SVR,[17],0.45
same,RA,[17],12
same,SVR,[17],8.55
same,TPR,[17],5.93
same,mPAP,[17],39.34
same,CI,[18],3.08
same,CO,[18],6.4
same,PAD,[18],20
same,PAS,[18],70
same,PCWP,[18],15
same,PVR,[18],3.39
same,PVR/SVR,[18],0.37
same,RA,[18],10
same,SVR,[18],9.22
same,TPR,[18],5.73
same,mPAP,[18],35.67
same,CI,[19],3.17
same,CO,[19],6.6
same,PAD,[19],20
same,PAS,[19],74
same,PCWP,[19],14
same,PVR,[19],3.64
same,PVR/SVR,[19],0.42
same,RA,[19],13
same,SVR,[19],8.64
same,TPR,[19],5.76
same,mPAP,[19],38.01
same,CI,[20],3.07
same,CO,[20],6.39
same,PAD,[20],20
same,PAS,[20],70
same,PCWP,[20],14
same,PVR,[20],3.55
same,PVR/SVR,[20],0.40
same,RA,[20],13
same,SVR,[20],8.92
same,TPR,[20],5.74
same,mPAP,[20],36.67
same,CI,[21],3.69
same,CO,[21],7.67
same,PAD,[21],19
same,PAS,[21],69
same,PCWP,[21],13
same,PVR,[21],2.96
same,PVR/SVR,[21],0.40
same,RA,[21],12
same,SVR,[21],7.48
same,TPR,[21],4.65
same,mPAP,[21],35.67
same,CI,[22],2.41
same,CO,[22],5.01
same,PAD,[22],17
same,PAS,[22],73
same,PCWP,[22],11
same,PVR,[22],4.92
same,PVR/SVR,[22],0.39
same,RA,[22],10
same,SVR,[22],12.51
same,TPR,[22],7.12
same,mPAP,[22],35.67
same,CI,[23],2.94
same,CO,[23],6.11
same,PAD,[23],19
same,PAS,[23],71
same,PCWP,[23],12
same,PVR,[23],3.98
same,PVR/SVR,[23],0.42
same,RA,[23],11
same,SVR,[23],9.55
same,TPR,[23],5.95
same,mPAP,[23],36.34
same,CI,[24],3.34
same,CO,[24],6.95
same,PAD,[24],20
same,PAS,[24],72
same,PCWP,[24],14
same,PVR,[24],3.36
same,PVR/SVR,[24],0.36
same,RA,[24],9
same,RVD,[24],8
same,RVS,[24],71
same,SVR,[24],9.31
same,TPR,[24],5.37
